Measured values taken from patent publication US9050275B2, “Methods of screening for and treating autism spectrum disorders and compositions for same” (Theta Biomedical Consulting & Development Co., Inc., priority 2009, dated 2015).
Values joined by “and” are separate entries in the source; they are usually repeats but may differ in a detail not shown here. Equal values may be shown once. Read-outs that look alike come from different tables or passages of the source. Where no end group is shown, it is not given here.

Assays:
LAD2 human mast cells [1] = test: cells; type: cell-based; conditions: for VEGF release / SP-induced VEGF release / HgCl2-induced VEGF release: 24 hours; for inhibition at 100 µM: Homo sapiens, LAD2, luteolin 0.1 mM, 10 min pretreatment
Protocol: (§1) LAD2 human mast cells were cultured in serum-free media (StemPro-34; GIBCO, Grand Island, N.Y.) supplemented with 2 mM L-glutamine, 100 IU/ml penicillin, 50 μg/ml streptomycin, and 100 ng/ml recombinant human Stem Cell Factor (rhSCF, obtained from Amgen, Inc., Thousand Oaks, Calif.). For optimal cell growth, LAD2 cell density was maintained between 0.5×106 and 1×10^6 cells/ml. Cell viability was assessed at 1 and 24 hr using trypan blue (0.3%) exclusion.
LAD2 cells were washed with DPBS and suspended in complete culture medium. LAD2 cells (2×10^5 cells/well/200 μl) were plated in 96 well flat bottom Falcon cell culture plates (Becton Dickinson, Franklin Lakes, N.J.) and were pre-incubated for 15 min at 37° C. in 5% CO2 atmosphere. The cells were then incubated with either SP (2 μM), HgCl2 (10 μM), or thimerosal (1, 10 μM) for 24 hours at 37° C. Control cells were treated with equal volume of only culture medium. For the inhibition experiments, thimerosal or methyl thiosalicylate were added together with the triggers, while luteolin was added 10 min before the triggers. After the reaction time, plates were centrifuged and the supernatant was gently collected from the wells and stored at −20° C. until VEGF was measured by Enzyme-Linked Immunosorbent Assay (ELISA) using a commercial kit (R&D Systems, Minneapolis, Minn.). The minimum detectable level of VEGF was 5 pg/ml.

mast cells = test: Inhibition of mast cells by quercetin; type: cell-based; conditions: Mast cell
Male BALB/6 mice = test: Brain blood vessel leakage by Evans blue extravasation; type: in vivo
Protocol: Male BALB/6 mice (6 weeks old, Jackson Laboratories, Bar Harbor, Me.) were injected in their tail vein with 0.2 ml of Evans blue (0.4%). Binding of Evans blue to the albumin found in the blood prevents Evans blue from escaping the circulation and constitutes a good biomarker from extravasation in brain parenchyma.
Mice were anesthetized with a single intraperitoneal injection of ketamine/xylazine (10 mg/kg and 80 mg/kg body weight, each), an intracardiac catheter was inserted in the left ventricle, blood was withdrawn, and 10 ml normal saline was administered intracardially to wash any Evans blue from the systemic circulation. The mice were then decapitated and the whole brain was removed. For brain extravasated Evans blue measurements, the brains were first weighed and the Evans blue was then extracted in 1 ml of N,N-dimethylformamide overnight at 55° C. and the optical density was measured at 620 nm using a PerkinElmer Luminescence Spectrophotometer (Perkin Elmer, Norwalk, Conn.). EB concentration was calculated using a standard curve and values were normalized to the tissue weight and expressed as arbitrary units/mg of tissue. Five animals per group were estimated to be sufficient for significant differences given the variability (<50%) observed. […] Values were then compared using the non-parametric Mann-Whitney U test. Significance is denoted by p<0.05.

[2] = system: human cultured LAD2 cells; test: Release of mitochondrial DNA from LAD2 mast cells (real time PCR); type: cell-based; conditions: 5 min pretreatment with luteolin; neurotensin stimulation
Text: Total DNA was extracted from supernatant fluids of cultured LAD2 cells using Qiagen DNA Micro extraction kit (Qiagen, Calif.). Mitochondrial specific DNA for Cytochrome B (Mt-CytB) and 7S (Mt-7S) was detected and quantified by Real time PCR using Taqman assay (Mt-7S: Hs02596861_s1; Mt-CYB: Hs02596867_s1; GAPDH: Hu, VIC, TAMRA, Applied Biosystems, Calif.). GAPDH DNA was used to exclude any genomic “contamination.”

LAD2 human mast cells [3] = conditions: thimerosal 10 μM, 24 hours, trypan blue exclusion
Protocol: as §1

[4] = substance 10 μM added together with SP (2 μM)

## [Cl][Hg][Cl] [HgCl2, Mercury chloride]
LAD2 human mast cells [1]; 10 μM, no other trigger
  VEGF release: 488±76 pg/106 cells
LAD2 human mast cells [1]; [4]
  SP-induced VEGF release: 553±63 pg/106 cells

## COC(=O)c1ccccc1S [Methyl thiosalicylate, methyl thiosalicylate]
LAD2 human mast cells [1]; substance 1 μM added together with SP (2 μM)
  SP-induced VEGF release: 281.63±24 pg/106 cells
LAD2 human mast cells [1]; substance 1 μM added with HgCl2 (10 μM)
  HgCl2-induced VEGF release: 258±29 pg/106 cells
LAD2 human mast cells [1]; [4]
  SP-induced VEGF release: 185.85±23 pg/106 cells
LAD2 human mast cells [1]; substance 10 μM added with HgCl2 (10 μM)
  HgCl2-induced VEGF release: 249.5±24 pg/106 cells

## O=c1c(O)c(-c2ccc(O)c(O)c2)oc2cc(O)cc(O)c12 [Quercetin]
Mast cells
  inhibition at 10 µM: 80%

## O=c1cc(-c2ccc(O)c(O)c2)oc2cc(O)cc(O)c12 [luteolin, 5,7,3′,4′-tetrahydroxyflavone]
Male BALB/6 mice; pretreatment with luteolin 40 mg/kg body weight mixed in olive kernel extract, NT 500 nmol/kg ip
  inhibition of NT-induced brain blood vessel leakage: completely inhibited
Male BALB/6 mice; pretreatment with the same amount of luteolin (40 mg/kg), IL-33 1 microg/mouse plus NT
  inhibition of brain blood vessel leakage induced by IL-33 and NT: 50%
LAD2 human mast cells [1]; HgCl2 10 μM, read-out: inhibition of HgCl2-stimulated VEGF release
  inhibition at 100 µM: 100%
LAD2 human mast cells [1]; thimerosal 10 μM, read-out: inhibition of thimerosal-stimulated VEGF release
  inhibition at 100 µM: 100%
[2]
  inhibition of release of extracellular mt components from mast cells: can be inhibited

## C[CH2][Hg][S]c1ccccc1C(=O)[O-].[Na+] [thimerosal]
LAD2 human mast cells [3]
  decrease of viability: less than 10%
LAD2 human mast cells [1]; 1 μM, no other trigger
  VEGF release: 326±12 pg/106 cells
LAD2 human mast cells [1]; 10 μM, no other trigger
  VEGF release: 335±12 pg/106 cells
LAD2 human mast cells [1]; [4]
  SP-induced VEGF release: 274.5±35 pg/106 cells

## Substance P (RPKPQQFFGLM-NH2; ends and bridges not checked; UniProt P20366 58-68, looked up) [SP, neuropeptide, non-allergic mast cell trigger]
LAD2 human mast cells [1]; SP 2 μM alone
  VEGF release: 445±16 pg/106 cells and 413.72±18 pg/106 cells

B1: IL-33: interleukin-33, cytokine injected intraperitoneally (protein, UniProt O95760 1-270, looked up)
Interleukin-33: MKPKMKYSTNKISTAKWKNTASKALCFKLGKSQQKAKEVCPMYFMKLRSGLMIKKEACYFRRETTKRPSLKTGRKHKRHLVLAACQQQSTVECFAFGISGVQKYTRALHDSSITGISPITEYLASLSTYNDQSITFALEDESYEIYVEDLKKDEKKDKVLLSYYESQHPSNESGDGVDGKMLMVTLSPTKDFWLHANNKEHSVELHKCEKPLPDQAFFVLHNMHSNCVSFECKTDPGVFIGVKDNHLALIKVDSSENLCTENILFKLSET
Male BALB/6 mice; IL-33 1 microg/mouse, alone or with NT, Evans blue extravasation
  brain leakage: no effect
